# From ChEMBL document CHEMBL3351500, “Fragment-based identification and optimization of a class of potent pyrrolo[2,1-f][1,2,4]triazine MAP4K4 inhibitors” (Bioorg Med Chem Lett, 2014)
# Key:
# Assay type in all cases: ADME, organism-based
# [1] = Clearance in mouse plasma at 1 mg/kg, iv; design: dose 1 mg/kg, route intravenous
# [2] = Volume of distribution at steady state in mouse plasma at 1 mg/kg, iv; design: dose 1 mg/kg, route intravenous; conditions: read-out: Vdss
# [3] = Oral bioavailability in mouse plasma at 25 mg/kg
Structure (SMILES),clearance [1] [mL/min/kg],Vd [2] [L/kg],bioavailability [3] [%]
CS(=O)(=O)c1ccc(-c2cc3c(Nc4ccncc4)ncnn3c2)cc1,25,1,6
CN1CCN(c2ccc(-c3cc4c(Nc5ccncc5)ncnn4c3)cn2)CC1,78,15,
CC(C)(O)Cn1cc(-c2ccc(-c3cc4c(Nc5ccncc5)ncnn4c3)cc2)cn1,22,2,16
